Test results from paper PMC4138991, “Building a Better Dynasore: The Dyngo Compounds Potently Inhibit Dynamin and Endocytosis” (Traffic (Copenhagen, Denmark), 2013).
“Also recorded” adds a separate entry of the source.

Legend:
[1] = target: T1, AP-2 alpha ear binding to amphiphysin 1 (Mus musculus, UniProt P17427); assay: ELISA-based AP-2 binding assay
T1 construct: GST-AP-2 α-appendage (amino acids 702–938); made in house; host or cells: bacteria
Procedure: The assay for the interaction of amphiphysin with either clathrin or AP2 was based on our previous report (11). Bacterially expressed recombinant purified His6-tagged amphiphysin 1 PRD+CLAP domains (amino acids 250-578) in screening buffer (20 mM HEPES, pH 7.4, 50 mM NaCl, 1 mM DTT, 1 mM PMSF) was added to a 384 well ELISA plate (high-binding PS Microplate, Greiner Bio-One) and bound to the plastic at room temperature for 1 hr. Non-specific binding was reduced by overnight incubation with 50 µL blocking buffer (20 mM HEPES, pH 7.4, 50 mM NaCl, 1 mM PMSF, 2 % BSA, 2.5 % skim milk) at 4 °C. Following extensive washes (with 20 mM HEPES, pH 7.4, 50 mM NaCl, 0.05 % Tween 20), chemical compounds diluted in DMSO (10 µL) were added and incubated together with bacterially expressed recombinant GST-tagged clathrin heavy chain TD (amino acids 1-364) or GST-AP-2 α-appendage (amino acids 702–938) for 1 hr at room temperature in screening buffer. This incubation was in the presence of test compounds diluted in 1% DMSO or 1% DMSO alone as a control. After 3 washes, horseradish peroxidase-coupled anti-GST antibodies were added in screening buffer and the plate incubated for 15 min at room temperature. Following additional washes, 50 µL TMB (3,3′,5,5′-tetramethylbenzidine) (Pierce Biotechnology) chromogenic substrate of horseradish peroxidase was added and the plate was incubated for 20 min before the reaction was terminated by adding 50 µL 1 N sulfuric acid to produce a yellow colour. The amount of bound protein was determined by spectrophotometric measurement in a plate reader in triplicates. Relative binding was calculated as a percentage of the DMSO control.

[2] = tested on: mitochondria in HeLa cells; assay: Mitotracker labeling of mitochondria, live confocal imaging; assay type: cell-based; conditions: 30 μM 4a, 30 μM 6a or 100 μM dynasore, 30 min
From the text: Dynasore was originally reported to inhibit the GTPase activity of dynamin‐like protein 1 (Dlp‐1), which is involved in mitochondrial fission. This raises the possibility that dynasore and the Dyngo compounds may affect mitochondrial morphology and/or dynamics in cells. We investigated this by labeling mitochondria in live HeLa cells using Mitotracker Green FM and imaging the cells over time using confocal microscopy. These cells stably expressed an mCherry‐conjugated form of the nuclear histone protein H2B, providing contrast to the green mitochondria.
HeLa cells were used that had been stably transduced to express H2B-mCherry. Cells were cultured at 37 °C, 5% CO2 in RPMI medium with 10% FBS. Expression of the transgene was maintained by puromycin selection. The day before imaging, cells were seeded on 4-chambered, glass bottomed 35 mm round dish at a density of 1 x 10^5 cells per chamber. The next day, cells were washed 4x in PBS and then incubated either in RPMI + 10% FBS or RPMI alone for 4 h. Medium was then removed and replaced with Mitotracker green-FM (150 nM) diluted in Hank’s buffered salt solution. Cells were incubated in Mitotracker for 20 min and then returned to RPMI either with or without serum. Cells were then imaged in a Yokugawa CV1000 Cell Voyager live cell confocal system prior to the application of compounds. Compounds were then applied: control samples received 1% DMSO, while test samples received 4a, 6a or dynasore (final DMSO concentration of 1%). Cells were incubated for at 37 °C, 5% CO2 and then images acquired over 2 h at 6 min intervals. 6 images were taken of each test condition.

[3] = MTT growth inhibition assay; assay type: cell-based; conditions: human
Procedure: A 30 mM stock solution of each test compound was prepared in dimethylsulphoxide (DMSO) and stored at −20 °C. All cell lines were cultured at 37 °C, under 5% CO2 in air and were maintained in Dulbecco’s modified Eagle’s medium (Trace Biosciences, Australia) supplemented with 10% foetal bovine serum, 10 mM sodium bicarbonate penicillin (100 IU/mL), streptomycin (100 µg/mL), and glutamine (4 mM). Cells in logarithmic growth were transferred to 96-well plates. Cytotoxicity was determined by plating cells in duplicate in […] medium at a density of 2,500–4,000 cells/well. On day 0, (24 h after plating) when the cells were in logarithmic growth, 100 μL medium with or without the test agent was added to each well. After 72 h drug exposure, growth inhibitory effects were evaluated using the MTT (3-[4,5-dimethyltiazol-2-yl]-2,5-diphenyl-tetrazolium bromide) assay and absorbance read at 540 nm. A dose response curve was produced allowing for the calculation of a GI50 value. This value is the drug concentration at which cell growth is inhibited by 50% based on the difference between the optical density values on day 0 and those at the end of drug exposure.

[4] = tested on: CT-555 uptake in NIH3T3 cells; assay type: cell-based; conditions: NIH3T3, 20, 50 or 80 μM
[5] = MCF-7 breast cancer cells, MCF-7, MTT

T1 sequence (P17427 702-938): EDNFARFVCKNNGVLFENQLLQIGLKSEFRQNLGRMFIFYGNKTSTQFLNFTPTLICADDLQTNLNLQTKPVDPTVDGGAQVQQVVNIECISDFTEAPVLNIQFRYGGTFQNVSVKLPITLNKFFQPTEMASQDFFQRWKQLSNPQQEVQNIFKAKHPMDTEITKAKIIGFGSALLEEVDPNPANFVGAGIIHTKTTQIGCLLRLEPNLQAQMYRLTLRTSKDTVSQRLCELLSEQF

Structure (SMILES)	IC50 AP-2 alpha ear binding to amphiphysin 1 ([1]; ELISA, n = 1 in triplicate)	mitochondrial morphology [2]	GI50 at 72 h ([3]; A431 skin cancer cells)	GI50 at 72 h ([3]; BE2-C neuroblastoma cells)	GI50 at 72 h ([3]; DU145 prostate cancer cells)	GI50 at 72 h ([3]; H460 lung cancer cells)	GI50 at 72 h ([3]; HT29 colon cancer cells)	GI50 at 72 h [3, 5]	GI50 at 72 h ([3]; SJ-G2 glioblastoma cells)	GI50 at 72 h ([3]; SW480 colon cancer cells)	GI50 at 72 h ([3]; ovarian cancer cells)	effect on dynamin-independent endocytosis of cholera toxin [4]	times less potent on AP-2 binding than for dynamin I inhibition [1]	IC50 ([1]; ELISA, n = 1 in triplicate)
O=C(N/N=C/c1ccc(O)c(O)c1)c1cc2ccccc2cc1O [Dynasore, (E)-N'-(3,4-Dihydroxybenzylidene)-3-hydroxy-2-naphthohydrazide]	no effect	did not mediate any changes in mitochondrial morphology	14 ± 0.6 µM	8.6 ± 0.4 µM	23 ± 1.7 µM	21 ± 1.9 µM	12 ± 1.3 µM	14 ± 0.3 µM	12 ± 1.7 µM	3.6 ± 0.1 µM	6.7 ± 0.4 µM	much less effect		
O=C(N/N=C/c1cccc(O)c1O)c1cc2ccccc2cc1O [6a, (E)-N'-(2,3-Dihydroxybenzylidene)-3-hydroxy-2-naphthohydrazide]	no effect	appeared to cause mitochondrial fragmentation	> 50 µM	> 50 µM	> 50 µM	> 50 µM	> 50 µM	> 50 µM	> 50 µM	> 50 µM	> 50 µM	no effect		
O=C(N/N=C/c1cc(O)c(O)cc1O)c1cc2ccccc2cc1O [4a, (E)-3-Hydroxy-N'-(2,4,5-trihydroxybenzylidene) -2-naphthohydrazide]		did not mediate any changes in mitochondrial morphology	> 50 µM	> 50 µM	> 50 µM	> 50 µM	> 50 µM	> 50 µM	> 50 µM	> 50 µM	> 50 µM	no effect; also recorded: much less effect; also recorded: does not block	~1000 times	362 µM
